Assays:
HL-60 = experiment: NCI dose-dependent growth inhibition, HL-60; type: cell-based; conditions: Homo sapiens; HL-60, 48-h exposure
Description: (§1) The three compounds were particularly active against leukemia cell lines. […] Without wishing to be limited by any theory, such differences in biochemical and biological patterns may be explained by differences in the cell permeabilities or stabilities of the two compounds. […] Data provided by the National Cancer Institute (NCI): […] The optical density of the test well after a 48-h period of exposure to test drug is T, the optical density at time zero is T0, and the control optical density is C. The “50” is called the […] parameter that can have values from +100 to -100.

K-562 = experiment: NCI dose-dependent growth inhibition, K-562; type: cell-based; conditions: Homo sapiens, K562; K-562, 48-h exposure
Description: as §1

MOLT-4 = experiment: NCI dose-dependent growth inhibition, MOLT-4; type: cell-based; conditions: Homo sapiens; MOLT-4, 48-h exposure
Description: as §1

RPMI-8226 = experiment: NCI dose-dependent growth inhibition, RPMI-8226; type: cell-based; conditions: Homo sapiens; RPMI-8226, 48-h exposure
Description: as §1

SR = experiment: NCI dose-dependent growth inhibition, SR; type: cell-based; conditions: Homo sapiens, 48-h exposure
Description: as §1

[1] = biological target: T1, human 20S proteasome (hs20S), chymotrypsin-like β5-subunits (Homo sapiens, UniProt P20618+P28074); experiment: In vitro 20S peptidase inhibition kinetics, chymotrypsin-like activity (Suc-LLVY-AMC); type: biochemical; conditions: second-order rate constant, Suc-LLVY-AMC substrate, 37° C.
T1 construct: purchased R&D
Experimental: In vitro 20S peptidase inhibition assays were recorded in a 384-well plate at a SpectraMax M5 (Molecular devises) plate-reader. Therefore, 5 nM human 20S (R&D) was incubated in buffer R (50 mM HEPES-KOH, pH 7.5, 0.5 mM EDTA) with 100 μM of the fluorogenic peptide substrates Suc-LLVY-AMC or Boc-LRR-AMC. Reactions were started by adding various amounts of inhibitors (5 nM to 500 μM) to a final volume of 30 μL and peptide hydrolysis was continuously monitored for 90 min by changes in fluorescence (excitation 380 nm; emission 440 nm) at 37° C. The kobs values were determined by fitting the raw data to equation (1). The slopes of the plots of kobsversus I gave an apparent value of kobs/I, also referred to as kinact/Ki for an irreversible inhibitor, which was then corrected by equation (2) to compensate for the effect of substrate competition, where app is the apparent value at different inhibitor concentrations.
Using purified human 20S proteasome (hs20S) and a fluorogenic substrate (Suc-LLVY-AMC), in vitro assays were performed to systematically assess proteasome inhibition by the syringolin analogues. The choice of substrate was based on the fact that it is preferentially acted upon by the chymotrypsin-like β5-subunits of the proteasome due to the aromatic tyrosine residue at the scissile bond (i.e., P1 position).
From measurements of the rates of hydrolysis of the fluorogenic substrate by the proteasome in the presence of increasing concentrations of each inhibitor, second-order rate constants kin/Ki (M^−1 s^−1) were determined (Table 1), which reflect both the affinity of the non-covalent binding (Ki) and the rate of the chemical reaction with the enzyme (kin). All of the syringolin analogues were capable in inhibiting the chymotrypsin-like activity of hs20S. Without wishing to be limited by any theory, consistent with the design predictions, the most significant contributor to the apparent second-order rate constants of the compounds was their binding affinity (Ki) rather than the rates of inhibition.
In vitro 20S peptidase inhibition assays were recorded in a 384-well plate at a SpectraMax M5 (Molecular Devices) plate-reader. Therefore, 5 nM human 20S (R&D) was incubated in buffer R (50 mM HEPEs-KOH, pH 7.5, 0.5 mM EDTA) with 100 μM of the fluorogenic peptide substrate Suc-LLVY-AMC. Reactions were started by adding various amounts of inhibitors 5 nM to 500 μM) to a final volume of 30 μL and peptide hydrolysis was continuously monitored for 90 minutes by changes in fluorescence (excitation 380 nm; emission 440 nm) at 37 degrees Celsius. The kobs values were determined by fitting the raw data to equation 1. The slopes of the plots of kobs versus I gave an apparent value of kob/I, also referred to as kinact/Ki for an irreversible inhibitor, which was then corrected by equation 2 to compensate for the effect of substrate competition, where app is the apparent value at different inhibitor concentrations.

[2] = system: 60 different cancer cell lines; experiment: NCI single-dose growth assay with 60 cancer cell lines; type: cell-based; conditions: 10 μM, average over the panel of cell lines
Experimental: FIG. 6 illustrates the in vitro inhibition results for compound 1, while FIG. 7 illustrates the in vitro inhibition results for compound 13. FIG. 8 illustrates the in vitro inhibition results for compound 14, while FIG. 9 illustrates the in vitro inhibition results for compound 15. FIG. 10 illustrates the in vitro inhibition results for compound 16. […] Specifically, cell lines incubated in media with 10 μM of compound 15 grew at an average of 30% of those incubated in media without compound. The mean growth of the cell lines in media with the same concentration of compound 16 was approximately 71% of those in negative control experiments.

leukemia cell lines = experiment: NCI dose-dependent growth inhibition, leukemia cell lines overall; type: cell-based; conditions: as much as, fold more potent
Description: as §1

hs20S kin/Ki [1]	Compound	GI50 (HL-60)	GI50 (K-562)	GI50 (MOLT-4)	GI50 (RPMI-8226)	GI50 (SR)	mean growth of cell lines relative to media without compound [2]	potency relative to syringolin B methyl ester (1) against the leukemia cell lines (leukemia cell lines)
	COC(=O)[C@@H](NC(=O)N[C@H](C(=O)N[C@H]1CCCCNC(=O)/C=C/[C@H](C(C)C)NC1=O)C(C)C)C(C)C [Compound 1, Syringolin B Methyl Ester, reference compound]	5.41 µM	6.12 µM	4.73 µM	3970 nM	5130 nM		
4,199 M^−1s^−1	COC(=O)[C@@H](NC(=O)N[C@@H](Cc1ccccc1)C(=O)N[C@H]1CCCCNC(=O)/C=C/[C@H](Cc2ccccc2)NC1=O)C(C)C [Compound 15, (S)-methyl 2-(3-((S)-1-(((5S,8S,E)-5-benzyl-2,7-dioxo-1,6-diazacyclododec-3-en-8-yl)amino)-1-oxo-3-phenylpropan-2-yl)ureido)-3-methylbutanoate]	4.34 µM	14.6 µM	3.32 µM	2720 nM	2780 nM	30%	
	COC(=O)[C@@H](NC(=O)N[C@@H](Cc1ccccc1)C(=O)N[C@H]1CCCCNC(=O)/C=C/[C@H](Cc2c[nH]c3ccccc23)NC1=O)C(C)C [Compound 16]	1.29 µM	2.94 µM	0.599 µM	343 nM	453 nM	approximately 71%	≤ 11.5 fold
